Experimental data from ChEMBL document CHEMBL6127034, “Design, synthesis and biological evaluation of a novel PAK1 degrader for the treatment of triple negative breast cancer” (Bioorg Med Chem, 2024).

Experiments:
[1] = biological target: T1, Protein cereblon/Serine/threonine-protein kinase PAK 1 (Homo sapiens) (UniProt Q13153+Q96SW2); test: PROTAC activity at CRBN/PAK1 in human MDA-MB-231 cells assessed as induction of protein degradation at 2.5 uM incubated for 48 hrs by Western blot analysis relative to control; type: cell-based
MDA-MB-231 = test: Antiproliferative activity against human MDA-MB-231 cells incubated for 48 hrs by MTT assay; type: functional, cell-based; conditions: MDA-MB-231, 48 h
[2] = biological target: T1, Protein cereblon/Serine/threonine-protein kinase PAK 1 (Homo sapiens); test: PROTAC activity at CRBN/PAK1 in human MDA-MB-231 cells assessed as fold change in protein expression at 2.5 uM incubated for 48 hrs by Western blot analysis relative to control; type: cell-based
[3] = biological target: T2, von Hippel-Lindau disease tumor suppressor/Serine/threonine-protein kinase PAK 1 (Homo sapiens, UniProt Q13153+P40337); test: PROTAC activity at VHL/PAK1 in human MDA-MB-231 cells assessed as induction of protein degradation at 2.5 uM incubated for 48 hrs by Western blot analysis relative to control; type: cell-based
[4] = biological target: T2, von Hippel-Lindau disease tumor suppressor/Serine/threonine-protein kinase PAK 1; test: PROTAC activity at VHL/PAK1 in human MDA-MB-231 cells assessed as induction of protein degradation at 0.1 uM incubated for 48 hrs by Western blot analysis relative to control; type: cell-based
[5] = biological target: T2, von Hippel-Lindau disease tumor suppressor/Serine/threonine-protein kinase PAK 1; test: PROTAC activity at VHL/PAK1 in human MDA-MB-231 cells assessed as fold change in protein expression at 2.5 uM incubated for 48 hrs by Western blot analysis relative to control; type: cell-based

T1 sequence (Q13153 whole entry, looked up): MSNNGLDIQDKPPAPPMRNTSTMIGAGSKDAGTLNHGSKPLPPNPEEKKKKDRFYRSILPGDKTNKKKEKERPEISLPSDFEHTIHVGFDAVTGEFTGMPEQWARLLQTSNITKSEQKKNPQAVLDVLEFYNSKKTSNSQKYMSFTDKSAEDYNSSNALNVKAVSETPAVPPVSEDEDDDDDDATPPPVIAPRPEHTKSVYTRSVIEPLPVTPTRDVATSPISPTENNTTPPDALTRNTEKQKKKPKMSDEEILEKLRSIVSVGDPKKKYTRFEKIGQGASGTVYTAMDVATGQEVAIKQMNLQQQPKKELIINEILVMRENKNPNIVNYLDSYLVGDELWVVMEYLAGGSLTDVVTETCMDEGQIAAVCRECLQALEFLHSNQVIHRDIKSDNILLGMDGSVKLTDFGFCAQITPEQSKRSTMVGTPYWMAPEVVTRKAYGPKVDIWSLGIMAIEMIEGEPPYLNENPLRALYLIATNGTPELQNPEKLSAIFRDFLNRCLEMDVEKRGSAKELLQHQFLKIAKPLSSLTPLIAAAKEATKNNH
T1 sequence (Q96SW2 whole entry, looked up): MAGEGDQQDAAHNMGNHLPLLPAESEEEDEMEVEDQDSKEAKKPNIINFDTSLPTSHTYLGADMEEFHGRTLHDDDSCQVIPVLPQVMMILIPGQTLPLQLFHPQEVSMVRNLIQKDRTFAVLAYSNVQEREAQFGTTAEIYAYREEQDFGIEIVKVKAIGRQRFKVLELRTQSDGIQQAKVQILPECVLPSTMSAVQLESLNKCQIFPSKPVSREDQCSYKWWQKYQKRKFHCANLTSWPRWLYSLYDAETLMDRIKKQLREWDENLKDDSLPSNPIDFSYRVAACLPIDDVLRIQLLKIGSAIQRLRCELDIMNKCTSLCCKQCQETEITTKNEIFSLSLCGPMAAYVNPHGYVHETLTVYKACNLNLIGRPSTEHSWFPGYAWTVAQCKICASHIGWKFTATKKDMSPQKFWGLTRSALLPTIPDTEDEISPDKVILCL
T2 sequence (Q13153 2-545 limits assumed): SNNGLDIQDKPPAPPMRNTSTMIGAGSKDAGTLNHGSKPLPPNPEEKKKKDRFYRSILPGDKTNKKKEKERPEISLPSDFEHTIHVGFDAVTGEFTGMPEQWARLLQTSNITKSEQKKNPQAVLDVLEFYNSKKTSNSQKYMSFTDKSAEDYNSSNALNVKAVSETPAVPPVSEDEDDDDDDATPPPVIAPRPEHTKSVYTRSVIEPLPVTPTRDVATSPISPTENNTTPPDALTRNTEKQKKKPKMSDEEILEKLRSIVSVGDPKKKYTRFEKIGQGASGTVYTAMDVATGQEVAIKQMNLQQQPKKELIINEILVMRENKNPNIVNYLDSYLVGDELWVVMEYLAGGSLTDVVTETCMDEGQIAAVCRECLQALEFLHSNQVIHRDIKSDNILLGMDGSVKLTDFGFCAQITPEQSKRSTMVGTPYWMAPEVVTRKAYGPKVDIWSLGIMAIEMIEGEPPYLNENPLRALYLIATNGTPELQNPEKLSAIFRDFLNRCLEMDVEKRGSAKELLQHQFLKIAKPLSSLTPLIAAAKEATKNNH
T2 sequence (P40337 whole entry partner): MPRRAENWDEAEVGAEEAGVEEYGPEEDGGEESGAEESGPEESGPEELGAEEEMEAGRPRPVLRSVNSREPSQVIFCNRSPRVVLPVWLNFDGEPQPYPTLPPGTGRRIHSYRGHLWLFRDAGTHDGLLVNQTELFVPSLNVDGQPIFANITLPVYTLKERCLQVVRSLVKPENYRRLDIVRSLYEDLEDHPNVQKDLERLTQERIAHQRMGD

SMILES	Activity [1] [%]	IC50 (MDA-MB-231) [µM]	fold change (FC) [2]	Activity [3] [%]	Activity [4] [%]	fold change (FC) [5]
O=C1CCC(N2C(=O)c3cccc(NCc4cn(CCCCCCn5c(=O)c(-c6ccc(Cl)cc6Cl)cc6cnc(NC7CC7)nc65)nn4)c3C2=O)C(=O)N1 (configuration not stated)	34.7	32.1	0.761	–	–	–
O=C1CCC(N2C(=O)c3cccc(NCc4cn(CCCCCn5c(=O)c(-c6ccc(Cl)cc6Cl)cc6cnc(NC7CC7)nc65)nn4)c3C2=O)C(=O)N1 (configuration not stated)	19.2	> 50	0.809	–	–	–
Cc1ncsc1-c1ccc([C@H](C)NC(=O)[C@@H]2C[C@@H](O)CN2C(=O)[C@@H](NC(=O)CCc2cn(CCOCCn3c(=O)c(-c4ccc(Cl)cc4Cl)cc4cnc(NC5CC5)nc43)nn2)C(C)(C)C)cc1	–	16.9	–	44.3	15.7	0.557
CNc1ncc2cc(-c3ccc(Cl)cc3Cl)c(=O)n(CCOCCn3cc(CNc4cccc5c4C(=O)N(C4CCC(=O)NC4=O)C5=O)nn3)c2n1 (configuration not stated)	8.2	> 50	0.918	–	–	–
Cc1ncsc1-c1ccc([C@H](C)NC(=O)[C@@H]2C[C@@H](O)CN2C(=O)[C@@H](NC(=O)CCCc2cn(CCOCCOCCOCCn3c(=O)c(-c4ccc(Cl)cc4Cl)cc4cnc(NC5CC5)nc43)nn2)C(C)(C)C)cc1	–	> 50	–	5.1	–	0.949
CNc1ncc2cc(-c3ccc(Cl)cc3Cl)c(=O)n(CCCCn3cc(CNc4cccc5c4C(=O)N(C4CCC(=O)NC4=O)C5=O)nn3)c2n1 (configuration not stated)	2.8	> 50	0.583	–	–	–
O=C1CCC(N2C(=O)c3cccc(NCc4cn(CCOCCOCCOCCn5c(=O)c(-c6ccc(Cl)cc6Cl)cc6cnc(NC7CC7)nc65)nn4)c3C2=O)C(=O)N1 (configuration not stated)	-6.9	> 50	1.07	–	–	–
O=C1CCC(N2C(=O)c3cccc(NCc4cn(CCOCCOCCn5c(=O)c(-c6ccc(Cl)cc6Cl)cc6cnc(NC7CC7)nc65)nn4)c3C2=O)C(=O)N1 (configuration not stated)	23.9	> 50	1.05	–	–	–
O=C1CCC(N2C(=O)c3cccc(NCc4cn(CCCCn5c(=O)c(-c6ccc(Cl)cc6Cl)cc6cnc(NC7CC7)nc65)nn4)c3C2=O)C(=O)N1 (configuration not stated)	23.9	34.6	0.761	–	–	–
Cc1ncsc1-c1ccc([C@H](C)NC(=O)[C@@H]2C[C@@H](O)CN2C(=O)[C@@H](NC(=O)CCCCc2cn(CCOCCOCCn3c(=O)c(-c4ccc(Cl)cc4Cl)cc4cnc(NC5CC5)nc43)nn2)C(C)(C)C)cc1	–	> 50	–	-4.8	–	1.05
O=C1CCC(N2C(=O)c3cccc(NCc4cn(CCOCCn5c(=O)c(-c6ccc(Cl)cc6Cl)cc6cnc(NC7CC7)nc65)nn4)c3C2=O)C(=O)N1 (configuration not stated)	1	> 50	0.99	–	–	–
Cc1ncsc1-c1ccc([C@H](C)NC(=O)[C@@H]2C[C@@H](O)CN2C(=O)[C@@H](NC(=O)CCc2cn(CCCCn3c(=O)c(-c4ccc(Cl)cc4Cl)cc4cnc(NC5CC5)nc43)nn2)C(C)(C)C)cc1	–	> 50	–	10.4	–	0.896
Cc1ncsc1-c1ccc([C@H](C)NC(=O)[C@@H]2C[C@@H](O)CN2C(=O)[C@@H](NC(=O)CCCc2cn(CCCCn3c(=O)c(-c4ccc(Cl)cc4Cl)cc4cnc(NC5CC5)nc43)nn2)C(C)(C)C)cc1	–	33.2	–	32.1	–	0.679
Cc1ncsc1-c1ccc([C@H](C)NC(=O)[C@@H]2C[C@@H](O)CN2C(=O)[C@@H](NC(=O)CCCCc2cn(CCCCn3c(=O)c(-c4ccc(Cl)cc4Cl)cc4cnc(NC5CC5)nc43)nn2)C(C)(C)C)cc1	–	> 50	–	14.4	–	0.856
Cc1ncsc1-c1ccc([C@H](C)NC(=O)[C@@H]2C[C@@H](O)CN2C(=O)[C@@H](NC(=O)CCCCc2cn(CCCCCCCn3c(=O)c(-c4ccc(Cl)cc4Cl)cc4cnc(NC5CC5)nc43)nn2)C(C)(C)C)cc1	–	> 50	–	18.2	–	0.812
CNc1ncc2cc(-c3ccc(Cl)cc3Cl)c(=O)n(CCOCCOCCn3cc(CNc4cccc5c4C(=O)N(C4CCC(=O)NC4=O)C5=O)nn3)c2n1 (configuration not stated)	4.1	> 50	0.959	–	–	–
Cc1ncsc1-c1ccc([C@H](C)NC(=O)[C@@H]2C[C@@H](O)CN2C(=O)[C@@H](NC(=O)CCc2cn(CCCCCn3c(=O)c(-c4ccc(Cl)cc4Cl)cc4cnc(NC5CC5)nc43)nn2)C(C)(C)C)cc1	–	> 50	–	17.4	–	0.826
Cc1ncsc1-c1ccc([C@H](C)NC(=O)[C@@H]2C[C@@H](O)CN2C(=O)[C@@H](NC(=O)CCCCc2cn(CCOCCOCCOCCn3c(=O)c(-c4ccc(Cl)cc4Cl)cc4cnc(NC5CC5)nc43)nn2)C(C)(C)C)cc1	–	> 50	–	12	–	0.88
Cc1ncsc1-c1ccc([C@H](C)NC(=O)[C@@H]2C[C@@H](O)CN2C(=O)[C@@H](NC(=O)CCCc2cn(CCCCCCn3c(=O)c(-c4ccc(Cl)cc4Cl)cc4cnc(NC5CC5)nc43)nn2)C(C)(C)C)cc1	–	> 50	–	29.1	–	0.709
CNc1ncc2cc(-c3ccc(Cl)cc3Cl)c(=O)n(CCOCCOCCOCCn3cc(CNc4cccc5c4C(=O)N(C4CCC(=O)NC4=O)C5=O)nn3)c2n1 (configuration not stated)	1.2	> 50	0.988	–	–	–
Cc1ncsc1-c1ccc([C@H](C)NC(=O)[C@@H]2C[C@@H](O)CN2C(=O)[C@@H](NC(=O)CCc2cn(CCOCCOCCn3c(=O)c(-c4ccc(Cl)cc4Cl)cc4cnc(NC5CC5)nc43)nn2)C(C)(C)C)cc1	–	> 50	–	3.8	–	0.962
Cc1ncsc1-c1ccc([C@H](C)NC(=O)[C@@H]2C[C@@H](O)CN2C(=O)[C@@H](NC(=O)CCCCc2cn(CCCCCCn3c(=O)c(-c4ccc(Cl)cc4Cl)cc4cnc(NC5CC5)nc43)nn2)C(C)(C)C)cc1	–	> 50	–	24.6	–	0.754
Cc1ncsc1-c1ccc([C@H](C)NC(=O)[C@@H]2C[C@@H](O)CN2C(=O)[C@@H](NC(=O)CCCCc2cn(CCOCCn3c(=O)c(-c4ccc(Cl)cc4Cl)cc4cnc(NC5CC5)nc43)nn2)C(C)(C)C)cc1	–	35.8	–	30.1	–	0.699
Cc1ncsc1-c1ccc([C@H](C)NC(=O)[C@@H]2C[C@@H](O)CN2C(=O)[C@@H](NC(=O)CCc2cn(CCOCCOCCOCCn3c(=O)c(-c4ccc(Cl)cc4Cl)cc4cnc(NC5CC5)nc43)nn2)C(C)(C)C)cc1	–	> 50	–	7.1	–	0.929
Cc1ncsc1-c1ccc([C@H](C)NC(=O)[C@@H]2C[C@@H](O)CN2C(=O)[C@@H](NC(=O)CCCc2cn(CCOCCOCCn3c(=O)c(-c4ccc(Cl)cc4Cl)cc4cnc(NC5CC5)nc43)nn2)C(C)(C)C)cc1	–	> 50	–	2.7	–	0.973
CNc1ncc2cc(-c3ccc(Cl)cc3Cl)c(=O)n(CCCCCn3cc(CNc4cccc5c4C(=O)N(C4CCC(=O)NC4=O)C5=O)nn3)c2n1 (configuration not stated)	-5.4	> 50	0.97	–	–	–
Cc1ncsc1-c1ccc([C@H](C)NC(=O)[C@@H]2C[C@@H](O)CN2C(=O)[C@@H](NC(=O)CCCc2cn(CCOCCn3c(=O)c(-c4ccc(Cl)cc4Cl)cc4cnc(NC5CC5)nc43)nn2)C(C)(C)C)cc1	–	27.1	–	31.7	–	0.683
